Consider ten compounds from patent US8614246B2, “Indole derivatives for treating neurodegenerative diseases” (Centre National de la Recherche Scientifique (CNRS), priority 2009, dated 2013).

The first experiment deals with dopaminergic neurons (TH+ neurons) in primary cultures of ventral mesencephalon. Briefly: Neuroprotection: counting of remaining TH+ neurons in primary cultures of ventral mesencephalon (spontaneous death of dopaminergic neurons). In kind it is cell-based. Particulars: Product 10 nM, 8 days culture, rat embryo ventral mesencephalon; untreated control = 100. As for the experimental part:
(§1) Dissection. Dissection consists of extracting embryos from the uterus of a rat after fifteen days of gestation. The brain of each embryo is then dissected under magnifying binoculars in order to extract the ventral mesencephalus.
(§2) Seeding. Mesencephalons are grouped in a flask containing 2 mL of L15 medium and then mechanically dissociated (30 repeat operations), 5 mL of L15 medium are added. The suspension is allowed to stand for 8 minutes. The 5 mL float is then recovered in a new flask and the cells are dissociated again (30 repeat operations). 5 mL of L15 is added again and the suspension is left to stand for 8 minutes. The 5 mL float is added to the previous float. The cells thus extracted are then centrifuged for 5 minutes at 1000 rpm^−1. The cell sediment is dissolved in a Neurobasal medium supplemented with 1% of B27, 1% of glutamine and 1% of a mixture of penicillin and streptomycin. The cells are then seeded at an appropriate dilution (0.6 embryos per well in 24-well plates and 0.4 per well in 48-well plates). The cultures are incubated at 37° C. in a wet atmosphere enriched with 5% CO2 in 24-well or 48-well plates.
(§3) Treatment. After 24 hours, two-thirds of the medium in each well is replaced by a new medium enriched with the product to be tested at the appropriate dilution. The medium is replaced in the same way after 4 days of culture.
(§4) Immunohistochemistry. After 8 days culture, the cells are fixed by a solution of 4% formaldehyde and then washed three times with PBS. The cells are then submitted to anti-tyrosine hydroxylase (TH) immunohistochemistry, developed by a secondary antibody coupled to a fluorophore emitting in the red (Cy3).
(§5) Analyses. Neuroprotection is evaluated by counting positive TH neurons with 10 fields per well directly under an inverted fluorescence microscope, reported as a percentage of the untreated control. Experiments are done on three wells per condition. Three independent experiments are done under these conditions. The total neuritic length per cell is calculated using Explora Nova's Neurite Outgrowth software on 60 to 100 neurons photographed independently per condition.
(§6) Primary cultures of ventral mesencephalon of rat embryos after 15.5 days of gestation under conditions causing spontaneous death of dopaminergic neurons, are maintained in the presence or absence of the compounds to be tested for 8 days. After fixing, the cultures are submitted to immunocytochemistry directed against tyrosine hydroxylase, a specific marker of dopaminergic neurons.
The neuroprotective potential of each compound is then estimated by counting the number of remaining neurons (TH^+ neurons) under a fluorescence microscope. The results for the different treatments are expressed as a percentage of the number of neurons remaining relative to untreated cultures (Control).
(§7) All experiments were done by comparison with a positive control, dibutyryl-AMP cyclic (db-AMPc) (Mourlevat S. et al. Mol. Pharmacol. 2003, 64 (3), 578-586).
For the compound `CCCCCCCCCCCCCCCC(=O)NCCc1c[nH]c2ccccc12` [Compound 1c, N-(2-(1H-indol-3-yl)ethyl)hexadecanamide], the “TH+ neurons, % relative to control ± SEM” value is reported as 121.3 ± 3.2 %.

As for `CCCCCCCCCCCCCCCCCCCC(=O)NCCc1c[nH]c2ccccc12` [Compound 1f, N-(2-(1H-indol-3-yl)ethyl)icosanamide], the “TH+ neurons, % relative to control ± SEM” value is listed as 121.8 ± 2.0 %.

On to `CCCCCCCCCCCCCCCCCCNCCc1c[nH]c2ccccc12` [Compound 2e, N-(2-(1H-indol-3-yl)ethyl)octadecan-1-amine], for which the “TH+ neurons, % relative to control ± SEM” value came to 129.9 ± 3.5 %.

`CCCCCCCCCCCCCCCCCCCCNCCc1c[nH]c2ccccc12` [Compound 2f]: the “TH+ neurons, % relative to control ± SEM” value worked out at 128.9 ± 3.4 %.

Turning to `CCCCCCCCCCCCCCCCCCCCCCCNCCc1c[nH]c2ccccc12` [Compound 2g, N-(2-(1 H-indol-3-yl)ethyl)tricosan-1-amine], the “TH+ neurons, % relative to control ± SEM” value is 129.6 ± 3.5 %.

Take `OCCCCCCCCCCCCCCCNCCc1c[nH]c2ccccc12` [Compound 2i, N-(2-(1H-indol-3-yl)ethyl)-15-hydroxypentadecanamine]: the “TH+ neurons, % relative to control ± SEM” value is reported as 129.4 ± 5.0 %.

On to `CCCC(=O)Nc1ncnc2c1ncn2[C@@H]1O[C@@H]2COP(=O)(O)O[C@H]2[C@H]1OC(=O)CCC` [db-AMPc, dibutyryl-AMP cyclic, reference compound], for which the “TH+ neurons, % relative to control ± SEM” value is recorded as 149.9 ± 3.6%.

For a further experiment the test system is unchanged. Briefly: Neuritogenesis: total neuritic length per dopaminergic neuron in primary cultures of ventral mesencephalon. It is filed as cell-based. Particulars: Product 10 nM, 8 days culture, rat embryo ventral mesencephalon; untreated control = 100. As for the experimental part:
as §1, §2, §3, §4, §5, §6
Neuritogenesis is quantified by measuring the total neuritic length per dopaminergic neuron (neuritic length/TH^+ neuron) using an image analyser on a minimum of sixty photographed neurons per condition (10-30% of all dopaminergic neurons).
as §7
Consider `CCCCCCCCCCCCCCCC(=O)NCCc1c[nH]c2ccccc12` [Compound 1c, N-(2-(1H-indol-3-yl)ethyl)hexadecanamide], for which the “Neuritic length/TH+ neuron, % relative to control ± SEM” value came to 168.6 ± 11.5 %.

On to `CCCCCCCCCCCCCCCCCCCC(=O)NCCc1c[nH]c2ccccc12` [Compound 1f, N-(2-(1H-indol-3-yl)ethyl)icosanamide], for which the “Neuritic length/TH+ neuron, % relative to control ± SEM” value was 147.4 ± 7.0 %.

As for `CCCCCCCCCCCCCCCCCCNCCc1c[nH]c2ccccc12` [Compound 2e, N-(2-(1H-indol-3-yl)ethyl)octadecan-1-amine], the “Neuritic length/TH+ neuron, % relative to control ± SEM” value is 157.3 ± 10.3 %.

As to `CCCCCCCCCCCCCCCCCCCCNCCc1c[nH]c2ccccc12` [Compound 2f], the “Neuritic length/TH+ neuron, % relative to control ± SEM” value is 132.6 ± 6.2 %.

Take `CCCCCCCCCCCCCCCCCCCCCCCNCCc1c[nH]c2ccccc12` [Compound 2g, N-(2-(1 H-indol-3-yl)ethyl)tricosan-1-amine]: the “Neuritic length/TH+ neuron, % relative to control ± SEM” value is on record as 141.2 ± 5.0 %.

As to `OCCCCCCCCCCCCCCCNCCc1c[nH]c2ccccc12` [Compound 2i, N-(2-(1H-indol-3-yl)ethyl)-15-hydroxypentadecanamine], the “Neuritic length/TH+ neuron, % relative to control ± SEM” value is 160.8 ± 13.8 %.

Consider `CCCC(=O)Nc1ncnc2c1ncn2[C@@H]1O[C@@H]2COP(=O)(O)O[C@H]2[C@H]1OC(=O)CCC` [db-AMPc, dibutyryl-AMP cyclic, reference compound], for which the “Neuritic length/TH+ neuron, % relative to control ± SEM” value was 333.1 ± 8.7 %.

Test system in another experiment: not listed separately
The experiment is described as follows: Test with ABTS (anti-oxidant capacity, hydroxyl radicals generated by Fenton's reaction). It is filed as biochemical. Particulars: 30 minutes at ambient temperature, range 10 nM to 1 mM, read-out: IC50 ± SEM (concentration at which 50% of hydroxyl radicals have been reduced) (converted). The text has this: ABTS or 2,2′-azino-bis-(3-ethylbenzthiazoline-6-sulfonic) acid is a coloured indicator of the presence of hydroxyl radicals in solution. The attack of a hydroxyl radical on ABTS generates the formation of an ATBS^+. cation radical (Equation 1). This coloured entity makes the absorbance (Abs) of the solution equal to 450 nm. ABTS+HO. ? ABTS^+. +HO^− Equation 1
During the test, hydroxyl radicals are generated by Fenton's reaction in the presence of iron and hydrogen peroxide (Equation 2) H2O2+Fe^2+ ? HO. +HO^−+Fe^3+ Equation 2
When a radical trap or antioxidant is present in solution, competition with ABTS is set up for reduction of hydroxyl radicals, which reduces the absorbance (Abs) at 450 nm.
The percentage of hydroxyl radicals converted into hydroxyl ions (% conversion) by the compound of interest may be calculated using Formula 1: […]
The anti-oxidant capacity of a compound may then be expressed in the form of IC50 that reflects the concentration at which 50% of hydroxyl radicals have been reduced by the tested compound.
Thus, the compounds to be tested and Trolox® were solubilised in ethanol so as to obtain solutions at 1 mM. We used cascade dilutions to obtain a concentration range varying from 1 mM to 10 nM. 90 μL of a 1:1 water-ethanol mixture was then added onto an ELISA 96-well plate, followed by 15 μL of an aqueous solution of ABTS at 1 mM, 15 μL of an aqueous solution of Fe2SO4 at 0.5 mM, 15 μL of each compound to be tested at different concentrations, and then 15 μl of an aqueous solution of hydrogen peroxide at 100 mM. The mixtures thus obtained were stirred at ambient temperature sheltered from air for 30 minutes, and the value of the absorbance at […] was then measured. The capacity of each compound to reduce hydroxyl radicals is determined by the reduction in absorbance at 450 nm, the control solution being composed of pure ethanol. Therefore, the ABTS test was made in comparison with Trolox®. The same ranges from 10 nm to 1 mM of indoles 1a, 1c, 1g, 1i, 2a, 4c, 2g, 2h and 2i were tested.
Turning to `CCCCCCCCCCCCCNCCc1c[nH]c2ccccc12` [Compound 2a, N-(2-(1H-indol-3-yl)ethyl)tridecan-1-amine], the IC50 was 810 ± 140 µM.

Consider `CCCCCCCCCCCCCCCCCCCCCCCNCCc1c[nH]c2ccccc12` [Compound 2g, N-(2-(1 H-indol-3-yl)ethyl)tricosan-1-amine], for which the IC50 is 670 µM.

With `OCCCCCCCCCCCCCCCNCCc1c[nH]c2ccccc12` [Compound 2i, N-(2-(1H-indol-3-yl)ethyl)-15-hydroxypentadecanamine], the IC50 was 730 ± 10 µM.

For `Cc1c(C)c2c(c(C)c1O)CCC(C)(C(=O)O)O2` (stereo not shown) [Trolox ®, reference compound], the IC50 was 550 ± 20 µM.

A further experiment deals with reactive oxygen species (ROS) in neurones of ventral mesencephalon cultures. The experiment is described as follows: Cellular test with dihydrorhodamine 123 (DHR-123). It is filed as cell-based, rat. Particulars: compounds 10 nM for eight days, 50 μM DHR-123 30 minutes; control = 100; Trolox at 10 μM per FIG. 1. As for the experimental part:
Dihydrorhodamine 123 or DHR123 is used as an indicator of reactive oxygen species (ROS). It is uncharged and not fluorescent and passes passively through the cellular membrane before being oxidised in contact with free radicals, into rhodamine 123 emitting green fluorescence.
The quantity of intracellular ROS is reduced when the cells are treated by an anti-oxidant. This reduction results in a quantifiable decay in emitted fluorescence in the presence of DHR123.
In order to conclude the role of the anti-oxidant capacity of compounds according to the invention in the observed neuroprotectrive activity, the cultures were placed strictly under the same conditions as for the neuroprotection/neuritogenesis test. Thus, the cultures were kept for eight days in the presence of a concentration of 10 nM of each of the tested tryptaminic derivatives. On the 8th day in vitro (DIV 8), 50 μM of DHR-123 (Sigma) was added and the cells were incubated for 30 minutes at 37° C. They were then washed three times, treated once again by compounds according to the invention and placed in a medium without any phenol red. Living fluorescent neurones that were immediately photographed can be observed, the fluorescence density per neurone being quantified under an inverted fluorescence microscope by an image analysis software.
For the compound `CCCCCCCCCCCCCCCC(=O)NCCc1c[nH]c2ccccc12` [Compound 1c, N-(2-(1H-indol-3-yl)ethyl)hexadecanamide], the “IF/neurone (%) (fluorescence intensity per neurone)” value turned out to be 55.9 ± 3.0 %.

Turning to `O=C(CCCCCCCCCCCCCCO)NCCc1c[nH]c2ccccc12` [Compound 1i, N-(2-(1H-indol-3-yl)ethyl)-15-hydroxypentadecanamide], the “IF/neurone (%) (fluorescence intensity per neurone)” value worked out at 56.5 ± 2.7 %.

`OCCCCCCCCCCCCCCCNCCc1c[nH]c2ccccc12` [Compound 2i, N-(2-(1H-indol-3-yl)ethyl)-15-hydroxypentadecanamine]: the “IF/neurone (%) (fluorescence intensity per neurone)” value is reported as 44.0 ± 3.6 %.

Consider `Cc1c(C)c2c(c(C)c1O)CCC(C)(C(=O)O)O2` (stereo not shown) [Trolox ®, reference compound], for which the “IF/neurone (%) (fluorescence intensity per neurone)” value is 44.0 ± 2.8 %.
